Laboratory results reported in patent publication US20130196986A1 (priority 2010, published 2013).

What follows are compounds tested against T1, P2X7 receptor (Homo sapiens, UniProt Q99572) (assay: Ca++ flux assay (FLIPR) in P2X7-HEK-293 cell line stably expressing the full length P2X7 receptor, Bz-ATP activation). Conditions: P2X7-HEK-293 cells; agonist Bz-ATP; fluorescence as total area over 90 seconds; read-out: P2X7 Ca Flux hu IC50.
T1 construct: stably expressing the full length P2X7 receptor; expressed in transfected cells
T1 sequence (Q99572 1-595): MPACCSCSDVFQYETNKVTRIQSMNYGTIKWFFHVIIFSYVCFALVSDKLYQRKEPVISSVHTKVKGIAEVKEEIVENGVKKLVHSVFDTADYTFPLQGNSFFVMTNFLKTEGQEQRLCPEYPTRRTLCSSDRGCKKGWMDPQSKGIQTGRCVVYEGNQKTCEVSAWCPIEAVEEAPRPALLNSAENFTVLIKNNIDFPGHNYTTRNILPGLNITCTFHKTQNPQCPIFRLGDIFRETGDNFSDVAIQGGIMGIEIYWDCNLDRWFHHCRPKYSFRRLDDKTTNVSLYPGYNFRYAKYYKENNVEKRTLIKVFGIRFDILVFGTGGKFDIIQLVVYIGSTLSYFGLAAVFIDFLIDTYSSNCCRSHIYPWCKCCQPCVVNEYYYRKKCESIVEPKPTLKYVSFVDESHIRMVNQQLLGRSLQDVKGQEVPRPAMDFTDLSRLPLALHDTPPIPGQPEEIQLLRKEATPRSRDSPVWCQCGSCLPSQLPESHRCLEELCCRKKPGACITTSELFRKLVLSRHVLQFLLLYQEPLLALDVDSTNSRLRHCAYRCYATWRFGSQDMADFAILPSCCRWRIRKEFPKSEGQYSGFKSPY
Type: cell-based
Method in brief: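 HEK-293 cells stably expressing full-length P2X7 were loaded with Ca++-sensitive dye for 1 h, with compound added during loading. Cells were stimulated with Bz-ATP on FLIPR. Fluorescence was integrated as total area over 90 s, and IC50 was taken as 50% inhibition of the maximal Ca++ response.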

| SMILES | IC50 [nM] |
| --- | --- |
| [2H]c1c([2H])c([2H])c(C([2H])([2H])S(=O)(=O)c2nnc3c(=O)n(-c4cccc(Cl)c4C)ccn23)c([2H])c1[2H] [Compound 140, deuterated-7-(3-chloro-2-methylphenyl)-3-[(phenyl-(d5)methyl-(d2))sulfonyl]-1,2,4-triazolo[4,3-a]pyrazin-8(7H)-one] | 31.8 |
| Cc1ccc(-c2ccccc2CS(=O)(=O)c2nnc3c(=O)n(-c4cccc(C(F)(F)F)c4C)ccn23)s1 [Compound 141] | 37 |
| O=c1c2nnc(S(=O)(=O)C(c3ccccc3)c3ccccc3)n2ccn1-c1cccc(C(F)(F)F)c1Cl [Compound 144, 3-(benzhydrylsulfonyl)-7-(2-chloro-3-(trifluoromethyl)phenyl)-[1,2,4]triazolo[4,3-a]pyrazin-8(7H)-one] | 130 |
| O=c1c2nnc(S(=O)(=O)Cc3cccc4ccccc34)n2ccn1-c1cccc(C(F)(F)F)c1Cl [Compound 145, 7-(2-chloro-3-(trifluoromethyl)phenyl)-3-(naphthalen-1-ylmethylsulfonyl)-[1,2,4]triazolo[4,3-a]pyrazin-8(7H)-one] | 47.9 |
| COc1cccc(-c2ccccc2CS(=O)(=O)c2nnc3c(=O)n(-c4cccc(C(F)(F)F)c4C)ccn23)c1 [Compound 146, 3-((3′-methoxybiphenyl-2-yl)methylsulfonyl)-7-(2-methyl-3-(trifluoromethyl)phenyl)-[1,2,4]triazolo[4,3-a]pyrazin-8(7H)-one] | 47 |
| Cc1c(Cl)cccc1-n1ccn2c(S(=O)(=O)Cc3ccc(F)cc3Cl)nnc2c1=O [Compound 148, 7-(3-chloro-2-methylphenyl)-3-(2-chloro-4-fluorobenzylsulfonyl)-[1,2,4]triazolo[4,3-a]pyrazin-8(7H)-one] | 47 |
| Cc1c(-n2ccn3c(S(=O)(=O)Cc4ccccc4-c4ccccc4)nnc3c2=O)cccc1C(F)(F)F [Compound 149] | 48 |
| Cc1ccc(-c2ccccc2CS(=O)(=O)c2nnc3c(=O)n(-c4cccc(C(F)(F)F)c4C)ccn23)s1 [Compound 150] | 48.9 |
| Cc1c(Cl)cccc1-n1ccn2c(S(=O)(=O)Cc3ccccc3-c3ccccc3)nnc2c1=O [Compound 155, 3-(biphenyl-2-ylmethylsulfonyl)-7-(3-chloro-2-methylphenyl)-[1,2,4]triazolo[4,3-a]pyrazin-8(7H)-one] | 53.2 |
| Cc1c(Cl)cccc1-n1ccn2c(S(=O)(=O)Cc3cccc(Cl)c3)nnc2c1=O [Compound 156, 7-(3-chloro-2-methylphenyl)-3-(3-chlorobenzylsulfonyl)-[1,2,4]triazolo[4,3-a]pyrazin-8(7H)-one] | 119 |
| Cc1c(Cl)cccc1-n1ccn2c(S(=O)(=O)Cc3ccc(Cl)cc3)nnc2c1=O [Compound 157, 7-(3-chloro-2-methylphenyl)-3-(4-chlorobenzylsulfonyl)-[1,2,4]triazolo[4,3-a]pyrazin-8(7H)-one] | 136 |
| Cc1c(Cl)cccc1-n1ccn2c(S(=O)(=O)Cc3ccccc3N3CCOCC3)nnc2c1=O [Compound 158, 7-(3-chloro-2-methylphenyl)-3-(2-morpholinobenzylsulfonyl)-[1,2,4]triazolo[4,3-a]pyrazin-8(7H)-one] | 189 |
| Cc1c(Cl)cccc1-n1ccn2c([S+]([O-])Cc3cc(Cl)cc(Cl)c3)nnc2c1=O (centres unmarked) [Compound 162, 7-(3-chloro-2-methylphenyl)-3-(3,5-dichlorobenzylsulfinyl)-[1,2,4]triazolo[4,3-a]pyrazin-8(7H)-one] | 335 |
| Cc1c(Cl)cccc1-n1ccn2c(NCCc3ccccc3)nnc2c1=O [Compound 168, 7-(3-chloro-2-methylphenyl)-3-(phenethylamino)-[1,2,4]triazolo[4,3-a]pyrazin-8(7H)-one] | 3150 |
| Cc1c(Cl)cccc1-n1ccn2c(N(C)Cc3ccccc3)nnc2c1=O [Compound 169, 3-(benzyl(methyl)amino)-7-(3-chloro-2-methylphenyl)-[1,2,4]triazolo[4,3-a]pyrazin-8(7H)-one] | 1590 |
| Cc1c(Cl)cccc1-n1ccn2c(N(Cc3ccccc3)Cc3ccccc3)nnc2c1=O [Compound 170, 7-(3-chloro-2-methylphenyl)-3-(dibenzylamino)-[1,2,4]triazolo[4,3-a]pyrazin-8(7H)-one] | 106 |

More lines, in order of falling IC50, values ahead:

| IC50 [nM] | SMILES |
| --- | --- |
| 5680 | Cc1c(-n2ccn3c(S(C)(=O)=O)nnc3c2=O)cccc1C(F)(F)F [Compound 165, 7-(2-methyl-3-(trifluoromethyl)phenyl)-3-(methylsulfonyl)-[1,2,4]triazolo[4,3-a]pyrazin-8(7H)-one] |
| 3110 | Cc1c(-n2ccn3c(S(=O)(=O)CC(=O)c4ccccc4)nnc3c2=O)cccc1C(F)(F)F [Compound 163, 7-(2-methyl-3-(trifluoromethyl)phenyl)-3-(2-oxo-2-phenylethylsulfonyl)-[1,2,4]triazolo[4,3-a]pyrazin-8(7H)-one] |
| 1130 | Cc1c(-n2ccn3c(S(=O)(=O)Cc4cccc5c4-c4ccccc4C5)nnc3c2=O)cccc1C(F)(F)F [Compound 159, 3-((9H-fluoren-4-yl)methylsulfonyl)-7-(2-methyl-3-(trifluoromethyl)phenyl)-[1,2,4]triazolo[4,3-a]pyrazin-8(7H)-one] |
| 1040 | Cc1c(Cl)cccc1-n1ccn2c(NC(c3ccccc3)c3ccccc3)nnc2c1=O [Compound 167, 3-(benzhydrylamino)-7-(3-chloro-2-methylphenyl)-[1,2,4]triazolo[4,3-a]pyrazin-8(7H)-one] |
| 629 | Cc1c(-n2ccn3c(S(=O)(=O)Cc4ccccc4-c4ccc(C(F)(F)F)cc4)nnc3c2=O)cccc1C(F)(F)F [Compound 164, 7-(2-methyl-3-(trifluoromethyl)phenyl)-3-((4′-(trifluoromethyl)biphenyl-2-yl)methylsulfonyl)-[1,2,4]triazolo[4,3-a]pyrazin-8(7H)-one] |
| 585 | Cc1c(Cl)cccc1-n1ccn2c(NCc3ccccc3-c3ccccc3)nnc2c1=O [Compound 166, 3-(biphenyl-2-ylmethylamino)-7-(3-chloro-2-methylphenyl)-[1,2,4]triazolo[4,3-a]pyrazin-8(7H)-one] |
| 335 | Cc1c(Cl)cccc1-n1ccn2c(S(=O)(=O)Cc3cc(Cl)cc(Cl)c3)nnc2c1=O [Compound 161, 7-(3-chloro-2-methylphenyl)-3-(3,5-dichlorobenzylsulfonyl)-[1,2,4]triazolo[4,3-a]pyrazin-8(7H)-one] |
| 284 | Cc1onc(-c2ccccc2)c1CS(=O)(=O)c1nnc2c(=O)n(-c3cccc(C(F)(F)F)c3C)ccn12 [Compound 160, 7-(2-methyl-3-(trifluoromethyl)phenyl)-3-((5-methyl-3-phenylisoxazol-4-yl)methylsulfonyl)-[1,2,4]triazolo[4,3-a]pyrazin-8(7H)-one] |
| 51.9 | Cc1ccc(-c2ccccc2CS(=O)(=O)c2nnc3c(=O)n(-c4cccc(C(F)(F)F)c4C)ccn23)cc1 [Compound 154, 7-(2-methyl-3-(trifluoromethyl)phenyl)-3-((4′-methylbiphenyl-2-yl)methylsulfonyl)-[1,2,4]triazolo[4,3-a]pyrazin-8(7H)-one] |
| 51.5 | Cc1c(-n2ccn3c(S(=O)(=O)Cc4ccccc4Oc4ccccc4)nnc3c2=O)cccc1C(F)(F)F [Compound 153, 7-(2-methyl-3-(trifluoromethyl)phenyl)-3-(2-phenoxybenzylsulfonyl)-[1,2,4]triazolo[4,3-a]pyrazin-8(7H)-one] |
| 51 | Cc1cccc(-c2ccccc2CS(=O)(=O)c2nnc3c(=O)n(-c4cccc(C(F)(F)F)c4C)ccn23)c1 [Compound 152] |
| 50.9 | Cc1c(Cl)cccc1-n1ccn2c(S(=O)(=O)Cc3ccccc3-c3cccs3)nnc2c1=O [Compound 151, 7-(3-chloro-2-methylphenyl)-3-(2-(thiophen-2-yl)benzylsulfonyl)-[1,2,4]triazolo[4,3-a]pyrazin-8(7H)-one] |
| 46.2 | Cc1c(-n2ccn3c(S(=O)(=O)Cc4ccccc4-c4cccs4)nnc3c2=O)cccc1C(F)(F)F [Compound 143, 7-(2-methyl-3-(trifluoromethyl)phenyl)-3-(2-(thiophen-2-yl)benzylsulfonyl)-[1,2,4]triazolo[4,3-a]pyrazin-8(7H)-one] |
| 45.8 | Cc1c(-n2ccn3c(S(=O)(=O)Cc4cscc4Br)nnc3c2=O)cccc1C(F)(F)F [Compound 147, 3-((4-bromothiophen-3-yl)methylsulfonyl)-7-(2-methyl-3-(trifluoromethyl)phenyl)-[1,2,4]triazolo[4,3-a]pyrazin-8(7H)-one] |
| 39.5 | [2H]c1c([2H])c([2H])c(CS(=O)(=O)c2nnc3c(=O)n(-c4cccc(Cl)c4C)ccn23)c([2H])c1[2H] [Compound 142, deuterated-7-(3-chloro-2-methylphenyl)-3-[(phenyl-(d5)methyl)sulfonyl]-1,2,4-triazolo[4,3-a]pyrazin-8(7H)-one] |
| 31.7 | Cc1c(Cl)cccc1-n1ccn2c(S(=O)(=O)Cc3ccccc3)nnc2c1=O [Compound 139, 3-(benzylsulfonyl)-7-(3-chloro-2-methylphenyl)-[1,2,4]triazolo[4,3-a]pyrazin-8(7H)-one] |
